Data as given in patent US8754095B2, “Substituted N-heterocycloalkyl bipyrrolidinylphenyl amide derivatives, preparation and therapeutic use thereof” (Sanofi, priority 2010, dated 2014).
pKi: −log10 of the molar value. Counter-ions that a name gives are not always drawn.

How the values were obtained:
[1] = target: T1, rhesus (Macacca Mulatta) H3 receptor (Macaca mulatta, UniProt Q865E1); experiment: Rhesus H3 [3H]-Methylhistamine radioligand binding assay; design: species or system rhesus monkey (Macacca Mulatta); conditions: displacement of [3H]-Methylhistamine (2 nM), rhesus H3 membranes, Cheng-Prusoff
T1 construct: pcDNA5/FRT/TO (Invitrogen) containing the rhesus monkey (Macacca Mulatta) 445 amino acid H3 receptor
T1 sequence (Q865E1 1-445): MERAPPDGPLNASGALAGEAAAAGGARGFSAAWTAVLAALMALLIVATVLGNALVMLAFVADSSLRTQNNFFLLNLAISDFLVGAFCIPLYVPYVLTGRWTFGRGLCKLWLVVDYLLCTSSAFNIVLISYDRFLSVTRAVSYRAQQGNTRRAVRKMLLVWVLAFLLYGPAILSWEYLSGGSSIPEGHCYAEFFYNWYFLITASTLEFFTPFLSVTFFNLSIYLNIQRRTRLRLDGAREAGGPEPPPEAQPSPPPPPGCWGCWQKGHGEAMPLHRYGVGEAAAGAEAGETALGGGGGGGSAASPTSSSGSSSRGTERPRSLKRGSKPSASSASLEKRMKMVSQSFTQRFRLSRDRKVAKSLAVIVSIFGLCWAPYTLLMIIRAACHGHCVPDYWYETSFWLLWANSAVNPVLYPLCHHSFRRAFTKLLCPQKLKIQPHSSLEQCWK
Description: Rhesus H3 membranes were prepared from the Flp-In T-REx 293 Cell Line (Invitrogen) stably transfected with pcDNA5/FRT/TO (Invitrogen) containing the rhesus monkey (Macacca Mulatta) 445 amino acid H3 receptor. (Genbank #AY231164). Stably transfected cultures were amplified in tissue culture flasks by standard tissue culture methods and induced to express rhesus H3 by exposure to 500 ng/ml tetracycline (Cellgro) for 24 hours. After induction, cells were dissociated from flasks utilizing Cell Stripper (Cellgro). Cells were centrifuged (1 K×g, 5 min) and pellet frozen in an ethanol-dry ice bath to disrupt cell membranes. Frozen cell pellet was re-suspended in 5 mM HEPES (pH 7.4, Invitrogen) at 10 ml/1000 cm2 of harvested cells. The cell suspension was drawn through an 18 gauge needle (2-3×) followed by a 23 gauge needle (2-3×) to further disrupt cell membranes. The cell suspension was centrifuged (40K×g, 30 min). Cell membrane pellet was re-suspended in 5 mM HEPES (pH 7.4, Invitrogen) at a final protein concentration of 10 mg/ml. Rhesus H3 membranes were stored under liquid nitrogen prior to use in [3]-Methylhistamine and GTPγS radioligand binding assays.
(§1) Rhesus H3 radioligand binding assay was performed using rhesus H3 receptor membranes (prepared as described above), [3H]-Methylhistamine (Perkin Elmer) and WGA SPA beads (wheat germ agglutinin scintillation proximity assay) beads (Amersham). The assay was performed in 96-well Opti-Plates (Packard). Each reaction contained 50 μl rhesus H3 membranes (20-30 μg total protein), 50 μl WGA SPA beads (0.1 μg) and 50 μl of 83 Ci/mmol [^3H]-Methylhistamine (final concentration 2 nM) and 50 μl of tested compound. The compounds of this invention and/or vehicle were diluted with binding buffer from 10 mM DMSO stocks. Assay plates were sealed with TopSeal (Perkin Elmer) and mixed on shaker (25° C., 1 hour). Assay plates were read on TopCount scintillation counter (Packard). Results were analyzed by Hill transformation and Ki values were determined by Cheng-Prusoff equation. Similar procedures were employed to determine the binding data for rat and mouse.

Rat H3 = Rat H3 (Rattus norvegicus, UniProt Q9QYN8); experiment: Rat H3 radioligand binding assay; conditions: similar procedure as rhesus binding
Sequence of Rat H3 (Q9QYN8 whole entry): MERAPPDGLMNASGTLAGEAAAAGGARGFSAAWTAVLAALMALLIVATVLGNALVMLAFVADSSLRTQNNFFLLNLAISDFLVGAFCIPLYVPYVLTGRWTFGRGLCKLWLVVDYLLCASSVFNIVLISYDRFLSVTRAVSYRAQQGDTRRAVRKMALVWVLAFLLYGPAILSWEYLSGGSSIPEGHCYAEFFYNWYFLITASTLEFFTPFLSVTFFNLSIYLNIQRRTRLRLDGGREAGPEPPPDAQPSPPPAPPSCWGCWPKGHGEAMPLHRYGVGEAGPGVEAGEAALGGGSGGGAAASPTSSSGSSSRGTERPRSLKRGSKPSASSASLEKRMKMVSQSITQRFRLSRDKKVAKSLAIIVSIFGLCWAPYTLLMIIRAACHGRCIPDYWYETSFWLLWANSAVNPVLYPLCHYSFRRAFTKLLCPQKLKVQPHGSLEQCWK
Description: as §1

Mouse H3 = Mouse H3 (Mus musculus, UniProt P58406); experiment: Mouse H3 radioligand binding assay; conditions: similar procedure as rhesus binding
Sequence of Mouse H3 (P58406 whole entry): as the sequence (Q9QYN8 whole entry) above, with T15A, A286T, A290G, R387H, I389V counted along it
Description: as §1

Rats = experiment: Forced-Swimming Test in Rats; format: in vivo; conditions: rat, p.o. twice, 5-min test
Description: This example further illustrates the study of efficacy of the compounds of this invention as antidepressive agents in animal models.
The procedure was a modification of that described by Porsolt et al. (1977) Depression: a new animal model sensitive to antidepressant treatments. Nature 266:730-2. Rats were placed in individual glass cylinder (40 cm height, 18 cm diameter) containing water (22-25° C.) to a height of 15 cm. Two swimming sessions were conducted (a 15-min training session followed 24 h later by a 5-min test). After each swimming session, rats were placed under a heating lamp to avoid hypothermia. The duration of immobility was measured during the 5-min test.
Example 1 of this invention was administered p.o. twice (15 min pre-test followed by first injection 24 h prior to 5 min test) at a dosage of 10 mg/kg.
Example 2 of this invention was administered p.o. twice (15 min pre-test followed by first injection 24 h prior to 5 min test) at a dosage levels of 0.1, 1, and 10 mg/kg.

Row | pKi [1] | pKi (Rat H3) | pKi (Mouse H3) | melting point [°C] | Structure (SMILES) | activity in forced-swimming test (duration of immobility) (Rats; 10 mg/kg) | activity in forced-swimming test (duration of immobility) (Rats; 0.1 mg/kg) | activity in forced-swimming test (duration of immobility) (Rats; 1 mg/kg)
1 | 8.60 | 8.08 | 7.97 | – | C[C@H]1CCCN1[C@H]1CCN(c2ccc(CC(=O)NC3CCOCC3)cc2)C1 [Example 1, 2-[4-((2S,3′S)-2-Methyl-[1,3′]bipyrrolidinyl-1′-yl)-phenyl]-N-(tetrahydro-pyran-4-yl)-acetamide] | active | – | –
2 | 8.52 | 8.01 | 7.71 | – | C[C@H]1CCCN1[C@H]1CCN(c2ccc3cc(C(=O)NC4CCOCC4)ccc3c2)C1 [Example 2, 6-((2S,3′S)-2-Methyl-[1,3′]bipyrrolidinyl-1′-yl)-naphthalene-2-carboxylic acid (tetrahydro-pyran-4-yl)amide] | active | active | active
3 | 8.70 | 7.82 | 8.00 | 180 | C[C@H]1CCCN1[C@H]1CCN(c2ccc(C(=O)NC3CCOCC3)cc2)C1 [Example 3, 4-((2S,3′S)-2-Methyl-[1,3′]bipyrrolidinyl-1′-yl)-N-(tetrahydro-pyran-4-yl)-benzamide] | – | – | –
4 | 8.82 | 7.71 | 7.92 | 147 | Cc1cc(N2CC[C@H](N3CCC[C@@H]3C)C2)ccc1C(=O)NC1CCOCC1 [Example 4, 2-Methyl-4-((2S,3′S)-2-methyl-[1,3′]bipyrrolidinyl-1′-yl)-N-(tetrahydro-pyran-4-yl)-benzamide] | – | – | –
5 | 8.91 | 7.72 | 7.39 | – | C[C@H]1CCCN1[C@H]1CCN(c2ccc(C(=O)NCC3CCOCC3)cc2)C1 [Example 5, 4-((2S,3′S)-2-Methyl-[1,3′]bipyrrolidinyl-1′-yl)-N-(tetrahydro-pyran-4-ylmethyl)-benzamide] | – | – | –
6 | 8.56 | 7.71 | – | – | C[C@H]1CCCN1[C@H]1CCN(c2ccc(CC(=O)NC3CCN(C(=O)OC(C)(C)C)CC3)cc2)C1 [Example 6] | – | – | –
7 | 9.09 | 8.95 | – | – | C[C@H]1CCCN1[C@H]1CCN(c2ccc(CC(=O)NC3CCNCC3)cc2)C1 [Example 7, 2-[4-((2S,3′S)-2-Methyl-[1,3′]bipyrrolidinyl-1′-yl)-phenyl]-N-piperidin-4-yl-acetamide hydrochloride] | – | – | –
8 | 8.80 | 8.08 | – | – | CCOC(=O)N1CCC(NC(=O)Cc2ccc(N3CC[C@H](N4CCC[C@@H]4C)C3)cc2)CC1 [Example 8, 4-{2-[4-((2S,3′S)-2-Methyl-[1,3′]bipyrrolidinyl-1′-yl)-phenyl]-acetylamino}-piperidine-1-carboxylic acid ethyl ester] | – | – | –
9 | 9.16 | 8.90 | – | – | C[C@H]1CCCN1[C@H]1CCN(c2ccc(CC(=O)NC3CCN(CC4CCCC4)CC3)cc2)C1 [Example 9, N-(1-Cyclopentylmethyl-piperidin-4-yl)-2-[4-((2S,3′S)-2-methyl-[1,3′]bipyrrolidinyl-1′-yl)-phenyl]-acetamide] | – | – | –
10 | 9.33 | 9.03 | 8.36 | – | CNC(=O)C1CCN(Cc2ccc(N3CC[C@H](N4CCC[C@@H]4C)C3)cc2)CC1 [Example 10, 1-[4-((2S,3′S)-2-Methyl-[1,3′]bipyrrolidinyl-1′-yl)-benzyl]-piperidine-4-carboxylic acid methylamide; hydrochloride] | – | – | –
